Laboratory results as given in patent publication US20240401146A1, “METHODS FOR PREDICTING AND IMPROVING THE EFFICACY OF MCL-1 INHIBITOR THERAPY” (INSTITUT NATIONAL DE LA SANTÉ ET DE LA RECHERCHE MÉDICALE, priority 2021, published 2024).
Like-named read-outs stand apart in the source and are kept apart here.

How the values were obtained:
[1] = test system: SUDHL-4 cells (BTG1 KO, BTG1 WT); details: SUDHL-4 BTG1 KO versus BTG1 WT; 72 h exposure; 0 or 50 nM; FIG. 3C
Experimental: (§1) TMD8 and SUDHL-4 were grown in Roswell Park Memorial Institute medium, GlutaMAX Supplement ([…], Thermofisher), supplemented with 10% FBS, 1% penicillin G/streptomycin. Cells were grown in incubators at 37 C, in a 5% CO2 atmosphere.
(§2) TMD8 and SUDHL-4 cells expressing cas9 were generated by transduction with lentiV-Cas9-blast virus (Addgene #125592, Massachusetts, USA), and selected with 2.5 μg/ml blasticidin for 7 days. […] Cells were selected with puromycin for 7 days, and GFP expression was evaluated with flow cytometry. BTG1 inactivation was validated by Western Blotting after 1 week. BTG1 rescue cell were derived from TMD8 BTG1 KO cells infected with murine BTG1 cDNA (100% protein homology with human) in a mcherry-HIV-based virus. GFP and mcherry positive cells were sorted on a FACS ARIA™ cell sorter (BD biosciences, San Jose, CA).
(§3) The high affinity MCL-1 specific inhibitor S63845 (Kotschy et al., 2016) was purchased from Selleck Chemical (München, Germany). For in vitro study, it was dissolved in DMSO at a concentration of lmmol/L. DMSO was also used as a vehicle control in the in vitro study. For cell viability assessment, 100 000 cells were seeded in 24 well plate and incubated for 72 h with either S63845 or DMSO. Culture medium was used for further dilutions (typically 5 and 50 nM). For cell viability assessment, cells were stained with Annexin V-APC and propidium iodide, analyzed on a FACS LSRII™ (BD biosciences, San Jose, CA).

[2] = test system: TMD8 cells (BTG1 KO, WT, rescue, mutated rescues); details: 72 h exposure, 0 or 50 nM, FIG. 3B
Experimental: as §1, §2, §3

## Cc1c(-c2c(-c3ccc(F)o3)sc3ncnc(O[C@H](Cc4ccccc4OCc4ccnn4CC(F)(F)F)C(=O)O)c23)ccc(OCCN2CCN(C)CC2)c1Cl [S63845]
[1]
  Proportion of apoptotic cells (Annexin V staining): confirmed the link between BTG1 inactivation and sensitivity to MCL-1
[2]; TMD8 BTG1 KO rescued with BTG1 WT
  Increased sensitivity to MCL-1 inhibitor (proportion of apoptotic cells, Annexin V staining): abolished by the expression of BTG1 WT
[2]; TMD8 BTG1 KO rescued with mutated BTG1 (L26P, G66D or I115V)
  Increased sensitivity to MCL-1 inhibitor (proportion of apoptotic cells, Annexin V staining): not by the expression of mutated BTG1
[2]; TMD8 BTG1 KO versus BTG1 WT
  Proportion of apoptotic cells (Annexin V staining): induces significantly more apoptosis
